Test results published in patent US20050153976A1, “Pharmaceutical compositions” (SCHERING CORPORATION, priority 2003, published 2005).
Several values for one entry are separate records, joined by “and”; a condition that tells them apart may be missing. Identical values can stand only once.

Assays:
[1] = pKa and log P of the compound of formula I; format: physicochemical
Source text: (§1) A particularly useful compound for use in the present invention is the compound represented by the chemical structural formula I comprising: [drawing 5] This compound is chemically known as 1-[(1-acetyl-4-piperidinyl)acetyl]-2(S)-(1,1-dimethylethyl)-4(S)*4-[phenyl [4(trifluoromethoxy)phenyl]methyl]piperazine and has a molecular weight of 559.3 g/mole. It is a weak base with a pKa of 4.0 corresponding to the ionization of the piperazine ring. The value of log P is 3.0 and the log D at pH 7.4 is calculated to be 2.9. […] The compound is very soluble in both ethanol and methanol (>150 mg/mL). The solubility in most common organic solvents, such as acetonitrile, dimethyl sulfoxide (DMSO), methylene chloride, ethyl acetate, isopropyl alcohol, hexane, and acetone, generally exceeds 50 mg/mL. The free form of the compound is amorphous, but a crystalline hydrogen sulfate salt of this compound can be made. The X-ray powder diffraction (XRPD) patterns of the amorphous free base and the crystalline hydrogen sulfate salt are shown in FIG. 1.

[2] = In-vivo pharmacokinetic (PK) studies; parameters: species or system rats and dogs; conditions: Dose 10 mg/kg
Source text: In-vivo pharmacokinetic (PK) studies in rats and dogs with these compositions show better PK results in terms of AUC, Cmax, and dose proportionality than that of compound only.

[3] = Solubility of the compound in aqueous media and in organic solvents; format: physicochemical
Source text: as §1

[4] = Evaluation of suspension in 0.4% HPMC solution or water (pH, chemical and physical stability, re-suspensibility); format: physicochemical
Source text: With proper ratios of carrier to compound, free flowing and uniform powders or solids can be produced. These powders or solids should have the original molecular characteristics of the adsorbed chemicals. The residual solvent (EtOH) used in this process can be reduced to 20 ppm level. These flowable powders or solids are suspended in an aqueous solution, such as 0.4% HPMC solution or water.
The flowable powders or solids have been tested to be very stable for at least two weeks chemically and physically at room temperature (RT) and ICH RH4 conditions (40° C. and 75% relative humility). The suspension solutions (SiO2-Compound or MCC-Compound in 0.4% HPMC solution or water) are also very stable both chemically and physically for at least two weeks at room temperature. The evaluation of SiO2-Compound and MCC-Compound are shown in Example 1.
Preparation of SiO2-Compound of Formula I samples may be carried out by the following representative steps. Uniformly mix 0.5 grams of API free form (amorphous) with 1.0 grams of SiO2 (Syliod®) 244 FP) in a container using a magnetic stirrer. Then add 5.0 mL of ethanol to the container to dissolve the compound completely. Stir at room temperature and dry the solution under N2 gas until a slurry is formed. Dry the slurry at increasing temperature beginning at 25° C. ending at 50° C. over a duration of 1 hour and at 50° C. for overnight under house vacuum. […]

CC(=O)N1CCC(CC(=O)N2CCN(C(c3ccccc3)c3ccc(OC(F)(F)F)cc3)C[C@@H]2C(C)(C)C)CC1 (stereo partly drawn) [Compound of Formula I, 1-[(1-acetyl-4-piperidinyl)acetyl]-2(S)-(1,1-dimethylethyl)-4(S)*4-[phenyl [4(trifluoromethoxy)phenyl]methyl]piperazine]
logP [1]: 3
pKa ([1]; weak base, ionization of the piperazine ring): 4
% AUC (infinity) [2]: 1.2%
AUC(0-t) ([2]; in vivo): 2520 ng·h/mL and 4.5 µM·h
Cmax ([2]; in vivo): 260 ng/mL and 500 nM
Tmax ([2]; in vivo): 3.3 h
AUC(0-inf) ([2]; in vivo, read-out: AUC (infinity)): 4.6 µM·h and 2550 ng·h/mL
solubility ([3]; aqueous media, aqueous buffer, pH 4.0): 1.9 µg/mL and 3.4 µM
solubility ([3]; aqueous media, pH 2.3, aqueous buffer): 74.6 µg/mL and 133 µM
solubility ([3]; aqueous media, pH 7.4, aqueous buffer, pH greater than 7.4): < 1 µg/mL and < 2 µM
solubility ([3]; organic solvent or mixture, in both ethanol and methanol): > 150 mg/mL
solubility ([3]; organic solvent or mixture, most common organic solvents (acetonitrile, DMSO, methylene chloride, ethyl acetate, isopropyl alcohol, hexane, acetone)): > 50 mg/mL
behaviour when suspended in 0.4% HPMC solution ([4]; SiO2 sample at 100 mg/mL, MCC sample at 102 mg/mL, free form as reference): forms a gum
behaviour when suspended in aqueous media ([4]; aqueous media): forms a gum
